Active and inactive are the calls of the source.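 Rule for the calls: active = in confirmatory dose-response testing, peak deubiquitinase inhibition of 30% or more; inactive = the rest.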
biological target: Ubiquitin carboxyl-terminal hydrolase 28 (Homo sapiens) (UniProt Q96RU2); test: Ubiquitin-specific peptidase 28 DUB inhibitors, biochemical concentration-dependence assay, validation of primary screening hits (AID 1645866); details: purified USP28, ubiquitin-rhodamine fluorescence, 30 min
Sequence (Q96RU2 whole entry, looked up): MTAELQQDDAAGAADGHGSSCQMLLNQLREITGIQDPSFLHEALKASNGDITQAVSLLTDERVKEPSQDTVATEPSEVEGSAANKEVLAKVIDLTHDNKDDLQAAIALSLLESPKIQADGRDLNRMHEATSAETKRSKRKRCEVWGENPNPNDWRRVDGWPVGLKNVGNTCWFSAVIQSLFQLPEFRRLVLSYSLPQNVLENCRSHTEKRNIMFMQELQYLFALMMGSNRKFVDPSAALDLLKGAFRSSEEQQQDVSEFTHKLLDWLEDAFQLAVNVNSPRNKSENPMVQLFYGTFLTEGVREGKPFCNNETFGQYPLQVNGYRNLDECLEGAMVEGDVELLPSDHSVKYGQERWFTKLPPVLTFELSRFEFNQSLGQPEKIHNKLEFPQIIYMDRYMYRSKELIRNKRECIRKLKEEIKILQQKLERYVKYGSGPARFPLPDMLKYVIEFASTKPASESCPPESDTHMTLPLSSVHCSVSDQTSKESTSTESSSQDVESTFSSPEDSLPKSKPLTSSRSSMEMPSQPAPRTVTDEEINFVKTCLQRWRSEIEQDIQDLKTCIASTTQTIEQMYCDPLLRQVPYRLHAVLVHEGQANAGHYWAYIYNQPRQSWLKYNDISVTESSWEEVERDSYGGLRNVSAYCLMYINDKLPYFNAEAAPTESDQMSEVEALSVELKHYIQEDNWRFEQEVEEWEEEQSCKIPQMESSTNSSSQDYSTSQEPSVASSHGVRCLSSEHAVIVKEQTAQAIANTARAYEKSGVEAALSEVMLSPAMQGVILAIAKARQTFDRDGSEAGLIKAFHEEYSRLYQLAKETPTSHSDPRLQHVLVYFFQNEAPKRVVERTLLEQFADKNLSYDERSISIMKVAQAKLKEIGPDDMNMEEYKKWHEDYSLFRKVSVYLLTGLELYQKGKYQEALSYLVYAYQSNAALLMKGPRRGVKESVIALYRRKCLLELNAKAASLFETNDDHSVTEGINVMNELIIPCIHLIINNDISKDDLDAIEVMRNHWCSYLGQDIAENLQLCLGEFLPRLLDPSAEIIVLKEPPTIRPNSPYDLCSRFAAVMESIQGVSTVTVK

Point of comparison: `CN(C)c1cccc(C(=O)Nc2cc(-c3cccnc3)no2)c1`, IC50 13.5 µM. Against it:
- Cc1ccc2[nH]c(=O)c(CN(CC3COCCO3)S(=O)(=O)c3ccc(F)cc3)cc2c1 (stereo not drawn) — the same, 13.5 µM
- O=C1Cc2ccccc2C(=O)N1c1ccc2c(c1)OCO2 — 1.8-fold higher, 24.3 µM
- COc1ccccc1CNC(=O)C1CCCN(c2nc3ccsc3c(=O)s2)C1 (stereo not drawn) — within 1.5-fold, 9.07 µM
- Cc1cccc(C(=O)Nc2ccc3c(c2)nc(CSc2nccc(C)n2)n3C)c1 — lower, < 0.05 µM
- Cc1sc2ccn(C)c(=O)c2c1C(=O)NC1CCCC1 — 3.2-fold lower, 4.28 µM
- CCOc1ccccc1NC(=O)COc1cc(OC)ccc1C(=O)c1ccccc1 — 3-fold lower, 4.45 µM
- O=C(Nc1ccccc1)C1CCCN(C(=O)c2cc3ccccc3[nH]2)C1 (stereo not drawn) — 2.9-fold higher, 39.1 µM
- COc1ccc(-n2c(SCC(=O)c3ccc(F)cc3)nnc2-c2cccnc2)cc1 — within 1.5-fold, 18.6 µM
- Cc1noc(-c2ccc(N3CCCC(C(=O)NCc4ccc(F)cc4)C3)nc2)n1 (stereo not drawn) — 1.5-fold higher, 20.3 µM
- O=C(/C=C/c1ccc(F)cc1)N1CCC(Cc2ccccc2)CC1 — 3.5-fold higher, 47.4 µM
- O=c1c(S(=O)(=O)c2cc(F)cc(F)c2)c[nH]c2cc(Cl)ccc12 — 1.5-fold higher, 20.6 µM
- CCCc1nc2sc3c(NC4CCCCC4)ncnc3c2c2c1CCC2 — lower, < 0.05 µM
- C/C1=C\CCC(C)C(O)CC(O)C(C)C(O)CCC(C)C(O)CC2(O)OC(CC(OC(=O)CC(=O)O)CC(O)CC(O)CC(O)C(C)C(O)/C=C/C(C)C(C(C)CCCCCCCCN=C(N)N)OC1=O)CC(O)C2O (stereo not drawn) — 2.8-fold lower, 4.77 µM
- CCN(CC)c1cc(C)c2cc(NC(=O)c3ccncc3)ccc2n1 — 2.3-fold lower, 5.88 µM
- CSc1ncccc1C(=O)OCc1ccc(Br)cc1 — 6.8-fold lower, 1.98 µM
- Cc1ccc(-n2nc(C(=O)Nc3ccc(C)cn3)c3ncn(C)c(=O)c32)cc1 — 8-fold lower, 1.69 µM
- O=C(COc1ccc(Cl)cc1)NCc1nnc(SCC(=O)NCc2ccc3c(c2)OCO3)o1 — 2.1-fold higher, 28.4 µM
- Cc1cccc(C(=O)Nc2ccccc2Sc2nc3c(c(=O)n(C)c(=O)n3C)n2C)c1 — 3.2-fold higher, 42.6 µM
- O=C(Nc1ccc(F)c(Cl)c1)c1ccc(N2CCCCS2(=O)=O)cc1Cl — 2.3-fold higher, 30.5 µM
- Cc1cc(NC(=O)c2[nH]nc3c2CCc2ccccc2-3)no1 — 2.1-fold lower, 6.37 µM
- COc1ccccc1CNC(=O)CCCn1c(=O)c2ccccc2n(CC(=O)N2CCN(c3ccccc3)CC2)c1=O — 2.1-fold higher, 28.8 µM
- O=C(NCc1ccc2c(c1)OCO2)c1[nH]nc2c1COc1ccccc1-2 — 1.7-fold lower, 7.75 µM
- COCCNC(=O)c1ccc(-c2ccc(N3CCCCC3)nc2)cc1 — within 1.5-fold, 19.6 µM
- CC1CCN(C(=O)c2cn(-c3cc(N4CCC(C)CC4)ncn3)cn2)CC1 — within 1.5-fold, 15.1 µM
- COc1cccc(-n2ccc(=O)c(-c3nc(-c4ccccc4Cl)no3)n2)c1 — 2-fold higher, 27.4 µM
- CC[C@@]1(O)C[C@H](OC2CC(N(C)C)C(OC3CC(O)C(OC4CCC(=O)C(C)O4)C(C)O3)C(C)O2)c2c(cc3c(c2O)C(=O)c2c(O)ccc(O)c2C3=O)[C@H]1C(=O)OC (stereo partly drawn) — 3.2-fold lower, 4.26 µM
- CCOc1ccc(C(=O)Cn2c(=O)n(CC3CCCO3)c(=O)c3cc(OC)c(OC)cc32)cc1Cl (stereo not drawn) — 1.7-fold higher, 23 µM
- Cc1ccc(Cn2cc(-c3noc(-c4ccncc4)n3)nn2)cc1 — 2.7-fold higher, 36.9 µM
- COc1cc(N)c(Cl)cc1C(=O)OCC(=O)c1ccc2c(c1)OCCO2 — 2.2-fold lower, 6.12 µM
- O=C(NCc1cccc(NC(=O)C2CC2)c1)Nc1cccc2ccccc12 — 1.5-fold higher, 20.5 µM
- Cc1cccc(CNC(=O)C2CCCN(S(=O)(=O)Cc3ccc(F)cc3)C2)c1 (stereo not drawn) — 2-fold higher, 26.6 µM
- CCOC(=O)N1CCN(S(=O)(=O)c2ccc(C(=O)Nc3ccc(Br)cc3)cc2)CC1 — within 1.5-fold, 18.3 µM
- Cc1nc(-c2ccccc2F)sc1C(=O)Nc1cccnc1 — 2-fold higher, 26.8 µM
- Cn1c(-c2nnc(SCC(=O)NCCc3ccccc3)o2)cc2ccccc21 — 1.8-fold higher, 23.7 µM
- Cc1cc(C(=O)N2CCOCC2)c(C)n1-c1ccc(O)cc1 — 3.1-fold higher, 41.7 µM
- O=C(c1ccco1)N1CCC2(CC1)CC1(CO2)Nc2ccccc2-n2cccc21 (stereo not drawn) — 2.5-fold higher, 34.4 µM
- CCCCCC(=O)N1c2ccccc2NC2=C(C(=O)CC(c3ccc(C(C)(C)C)cc3)C2)C1c1ccncc1 (stereo not drawn) — within 1.5-fold, 11.4 µM
- CC(=O)c1cccc(NC(=O)c2ccc(CN(c3ccc(C)c(C)c3)S(C)(=O)=O)cc2)c1 — 6.1-fold lower, 2.2 µM
- COc1ccc(C(=O)Nc2n[nH]c(C)c2-c2cccc(C)c2)c(OC)c1 — within 1.5-fold, 10.3 µM
- CC1CCCN(CCCNC(=O)c2ccc(N3CCc4ccccc43)s2)C1 (stereo not drawn) — within 1.5-fold, 18.5 µM
- O=C(CC1Oc2ccccc2NC1=O)Nc1ccccc1Br (stereo not drawn) — 2.8-fold higher, 38 µM
- O=C(Nc1ccc2c(c1)OCCO2)c1cc(CN2CCCC2)on1 — within 1.5-fold, 9.81 µM
- O=C(Cn1c(=O)n(Cc2ccc3c(c2)OCO3)c(=O)c2ncccc21)c1ccc(Cl)cc1 — 2.3-fold higher, 30.4 µM
- COc1ccc(OC)c(CCNC(=O)CCC2=NS(=O)(=O)c3ccc(C(F)(F)F)cc3N2)c1 — 1.7-fold higher, 23.6 µM
- COC1=C(C2=C(OC)C(=O)c3cc4c(c(O)c3C2=O)C(=O)OC(C)C4)C(=O)c2c(cc3c(c2O)C(=O)OC(C)C3)C1=O (stereo not drawn) — 13-fold lower, 1.05 µM
- N#Cc1cccc(S(=O)(=O)N2CCc3nc4ccccc4n3CC2)c1 — 1.6-fold higher, 21.7 µM
- CCOC(=O)c1c(C)nc2n(Cc3ccccc3)c3ccccc3n12 — 1.6-fold higher, 21.7 µM
- COc1cc(NC(=O)c2cc(CN3CCOCC3)on2)cc(OC)c1 — 1.5-fold higher, 20.3 µM
- CCCCc1nc2sc3c(SCC(=O)NCc4ccccc4)ncnc3c2c2c1CCC2 — 2.9-fold higher, 39 µM
- Cc1ccccc1-c1nnc(-c2ccc(C(=O)NCc3ccccc3F)cc2)o1 — within 1.5-fold, 12.6 µM
- Cc1cnnn1-c1ccc(C(=O)Nc2ccc(Cl)cc2)cc1 — 1.5-fold higher, 20.3 µM
- CCOc1ccc(NC(=O)CSc2nc3n[nH]c(C)c3c(=N)n2-c2ccc(OC)cc2)cc1 — 2.5-fold higher, 34 µM
- COc1ccc(C(=O)Nc2ccc(S(=O)(=O)N3CCCCC3)cc2)cc1 — within 1.5-fold, 17.4 µM
- CCCCCCCc1cc(O)cc(O)c1 — 3.1-fold lower, 4.32 µM
- CCCc1nc2sc3c(NCc4ccco4)ncnc3c2c2c1CCC2 — lower, < 0.05 µM
- CC(=O)c1ccc(NC(=O)c2ccc(N3CCCCS3(=O)=O)cc2Cl)cc1 — 2-fold higher, 26.6 µM
- CC(C)(C)C(=O)[C@@H]1[C@@H](C(=O)c2ccc3c(c2)OCO3)[C@@]2(C(=O)Nc3ccccc32)[C@H]2c3ccccc3C=CN12 — 3.3-fold higher, 44.5 µM
- O=C(COc1ccc2oc3c(c2c1)CCCC3)Nc1ccccn1 — 1.8-fold higher, 24.9 µM
- O=c1[nH]c(C2CCN(S(=O)(=O)c3ccc(S(=O)(=O)NC4CCCCC4)cc3)CC2)nc2c1nnn2Cc1c(F)cccc1Cl — within 1.5-fold, 17 µM
- O=c1[nH]c(C2CCN(S(=O)(=O)c3ccc(S(=O)(=O)NC4CCCCC4)cc3)CC2)nc2c1nnn2Cc1c(Cl)cccc1Cl — 1.6-fold lower, 8.62 µM
- N#Cc1ccc(COC(=O)c2ccc3ccccc3n2)cc1 — 3.7-fold lower, 3.62 µM
- COc1ccc(-c2cc(-c3ccccc3)nc(SCC(N)=O)c2C#N)cc1OC — 6.9-fold lower, 1.97 µM
- CC(C)c1ccc(NC(=O)COC(=O)c2ccc3[nH]c4c(c3c2)CCCC4)cc1 — 2.3-fold higher, 31.4 µM
- COc1cc(O)c2c(=O)c(-c3ccc(O)cc3)coc2c1 — 2.7-fold higher, 36.1 µM
- O=C1CC(C(=O)Nc2ccccc2Cl)n2nc(-c3ccccc3)cc2N1 (stereo not drawn) — within 1.5-fold, 19.3 µM
- COc1ccc(-c2cc(C(=O)NC3CCCCCC3)[nH]n2)cc1S(=O)(=O)N(C)C — 1.7-fold higher, 23.6 µM
- O=C(COC(=O)c1ccc(NS(=O)(=O)c2ccc3c(c2)OCCO3)cc1)NCc1ccc(Cl)cc1 — 2-fold lower, 6.76 µM
- Fc1ccc(-c2noc(-c3nnc(NCc4cccnc4)c4ccccc34)n2)cc1 — 4.5-fold lower, 2.97 µM
- CC1=C(C)C(c2c(-c3ccc(C)cc3)[nH]c3ccccc23)N(C(C)(C)C)C1=O (stereo not drawn) — 6-fold lower, 2.25 µM
- CCOC(=O)c1cnn(-c2ccc(C(=O)Nc3ccc(C)c(Cl)c3)cc2)c1N — 2.5-fold lower, 5.47 µM

`Cc1ccc(S(=O)(=O)Nc2ccccc2SCCS(=O)(=O)c2ccc(Cl)cc2)cc1` was tested, and the IC50 was > 50 µM (inactive).
With `Cc1cc(C)c2nc3c(cc2c1)CN(Cc1ccco1)C(=O)O3` the IC50 was > 50 µM (inactive).
In the case of `O=c1c2cnc3nc(-c4cccnc4)nn3c2ccn1CCc1ccccc1`, the IC50 is reported as > 50 µM (inactive).
For `O=C(CN(Cc1ccc(Cl)cc1)S(=O)(=O)c1ccc(Cl)cc1)N1CCOCC1`, the IC50 was > 50 µM (inactive).
`CN1c2ccccc2CN(CC(N)=O)CC1Cc1ccccc1` (stereo not drawn) was tested, and the IC50 was > 50 µM (inactive).
With `Cc1ccc2cc3c(nc2n1)CCN(Cc1ccc(F)cc1)C3` the IC50 was > 50 µM (inactive).
With `COC(=O)c1cc2c(ccn2C)n1CC(=O)NC1CCCC1` the IC50 was > 50 µM (inactive).
In the case of `CCOC(=O)[C@@H]1[C@@H](c2ccccc2)CN2CCN(C(=O)c3cnccn3)C[C@H]12`, the IC50 is reported as > 50 µM (inactive).
With `COc1ccc(-c2nc(SCC(=O)Nc3ccc(Cl)cc3F)n[nH]2)cc1` the IC50 was > 50 µM (inactive).
For `COc1ccc(C(=O)CCN2CCOCC2)cc1[N+](=O)[O-]`, the IC50 was > 50 µM (inactive).
With `COc1ccc(N2C(=O)[C@@H]3[C@H]4c5ccccc5C=CN4C(C(=O)Nc4ccc5c(c4)OCO5)[C@@H]3C2=O)cc1` (stereo partly drawn) the IC50 was > 50 µM (inactive).
In the case of `CN(C(=O)c1ccncc1)[C@H]1CC[C@@]2(C)C[C@H](c3ccccc3)C[C@](C)(O2)[C@@H]1O`, the IC50 is reported as > 50 µM (inactive).
With `CC(C)N1CC2CN(C(=O)c3ccccc3)CCN2Cc2ccccc21` (stereo not drawn) the IC50 was > 50 µM (inactive).
`COc1cccc(CCNC(=O)CCn2c(=O)c(C)nc3cc(C)c(C)cc32)c1` was tested, and the IC50 was > 50 µM (inactive).
With `Cc1oc(C2CC2)cc1C(=O)N1CCC2(CC1)CC1(CO2)Nc2ccccc2-n2cccc21` (stereo not drawn) the IC50 was > 50 µM (inactive).
For `Cc1ccccc1NC(=O)c1ccc(N2CCCCC2)nn1`, the IC50 was > 50 µM (inactive).
For `N[C@@H](Cc1ccccc1)C(=O)N1CCC2(CC1)CN(C(=O)c1ccc(Cl)cc1)CCO2`, the IC50 was > 50 µM (inactive).

From PubChem BioAssay AID1645866 (Buhrlage Lab, Dana-Farber Cancer Institute and Novartis …, 2021)
